Common to all, as to assay: inhibition of tumour cell growth, NCI panel, 48 h
The test system of assay [1] is HCC-2998 colon.
Assay [2] has as its system T-47D breast.
Assay [3] deals with NCI-H460 lung.
Assay [4] concerns UO-31 renal.
The test system of assay [5] is ACHN renal.
In assay [6] the test system is MALME-3M melanoma.
Assay [7] relates to OVCAR-5 ovarian.
For assay [8], the system named is HL-60(TB) leukemia.
Assay [9] deals with EKVX NSCLC.
In assay [10] the test system is MCF7 breast.

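All cell lines were grown in 96-well plates and treated with compound for 48 hours. Here, GI50 denotes the concentration required for 50% inhibition of growth. TGI marks complete inhibition of growth.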

Consider `CCOc1ccccc1NC(=O)c1cc2ccccc2cc1O`, for which the GI50 was 4 µM in assay [1]; 2.67 µM in assay [2]; 2.94 µM in assay [3]; 2.81 µM in assay [4]; 2.96 µM in assay [5]; 2.3 µM in [6]. Also, the GI50 in [7] is 7.06 µM; in [8] it was 2.31 µM; in assay [9], 2.67 µM; in [10], 2.49 µM. The TGI in assay [1] came to 15.6 µM; in assay [2], 14.5 µM; in [3], 7.03 µM; in assay [4], 12.5 µM; in assay [5], 10.3 µM; in assay [6], 10.2 µM. The TGI was determined as 27.7 µM in assay [7], 5.47 µM in assay [8], 11.3 µM in [9] and 13.1 µM in assay [10].

As for `c1ccc2c(c1)sc1c3cnccc3ccc21`, the TGI in [1], in assay [2], in assay [3], in [4], in [5] and in assay [6] was over 100 µM throughout. In addition, the TGI in assay [7], in [8], in assay [9] and in [10] was over 100 µM in each case.

Consider `COC(=O)C1=C(C)NC(C)=C(C(=O)OC)C1/C=C(\Cl)c1ccc(Cl)c(Cl)c1`, for which the GI50 is 17.3 µM in assay [1]; 20.2 µM in assay [2]; 6.48 µM in assay [3]; 13.9 µM in assay [4]; 12.8 µM in assay [5]; 17.5 µM in [6]. Further, the GI50 in [7] was 16.8 µM; in [8] it was 11.9 µM; in [9], 10.7 µM; in [10] it was 11.4 µM. Also, the TGI is 31.1 µM in assay [1]; 50.1 µM in assay [2]; 23.4 µM in assay [3]; 27.1 µM in [4]; 25.5 µM in assay [5]; 35.9 µM in assay [6]. Also, the TGI in assay [7] is 30.4 µM; in [8], 38.4 µM; in assay [9] it was 24.9 µM; in assay [10] it was 33.5 µM.

Take `COc1cc(-n2cc(-c3ccc(F)cc3)nc2SCc2ccccc2)cc(OC)c1OC`: the GI50 was over 100 µM in [1]; 9.57 µM in assay [2]; 77.2 µM in assay [3]; 9.66 µM in assay [4]; over 100 µM in assay [5]; over 100 µM in assay [6]. In addition, the GI50 in assay [7], in [8], in [9] and in assay [10] was over 100 µM throughout. Further, the TGI in [1], in assay [2], in assay [3], in assay [4], in assay [5] and in assay [6] was over 100 µM in each case. For the same compound, the TGI in assay [7], in assay [8], in [9] and in assay [10] was over 100 µM in each case.

For the compound `O=C1CC(c2cccc(O)c2)C2(C(=O)NC(=S)NC2=O)C(c2cccc(O)c2)C1` (stereo not given), the GI50 in [1], in assay [2], in [3], in [4], in assay [5] and in [6] was over 100 µM each time. In addition, the GI50 in [7], in [8], in assay [9] and in [10] was over 100 µM throughout. Further, the TGI in assay [1], in assay [2], in [3], in assay [4], in assay [5] and in assay [6] was over 100 µM throughout. The TGI in assay [7], in assay [8], in assay [9] and in assay [10] was over 100 µM throughout.

Consider `Oc1ccc(CN2CCC(N3CCOCC3)CC2)c2cccnc12`, for which the GI50 in assay [1] is 51.7 µM; in [2], 35.5 µM; in assay [3] it was 46.9 µM; in [4] it was 14.7 µM; in [5], 25.1 µM; in [6] it was 29.1 µM. Further, the GI50 was 86.9 µM in [7], 22.7 µM in [8], 36.6 µM in [9] and 22.7 µM in assay [10]. Moreover, the TGI in assay [1] is over 100 µM; in assay [2], over 100 µM; in assay [3] it was over 100 µM; in assay [4], 63.8 µM; in assay [5] it was over 100 µM; in assay [6], over 100 µM. The TGI in assay [7] was over 100 µM; in assay [8] it was 51 µM; in assay [9] it was over 100 µM; in assay [10] it was 76.8 µM.

For `CCCCCc1nc2c(c3c1CCCC3)CCCC2`, the GI50 in [1] is 10.2 µM; in assay [2] it was 6.2 µM; in [3], 12 µM; in assay [4], 2.19 µM; in assay [5] it was 11.5 µM; in assay [6], 11.3 µM. The GI50 is 9.08 µM in [7], 5.8 µM in [8], 4.21 µM in assay [9] and 5.28 µM in assay [10]. Besides, the TGI in [1] was 29.5 µM; in assay [2] it was 24.9 µM; in assay [3], 30.1 µM; in assay [4], 13.9 µM; in assay [5], 30.5 µM; in assay [6], 25.7 µM. Besides, the TGI is 27.4 µM in assay [7], 29.4 µM in [8], 26.9 µM in [9] and 21.2 µM in assay [10].

For the compound `CCOc1ccc(-c2cnnn2-c2nonc2-n2cccc2)cc1`, the GI50 is 0.364 µM in assay [1]; 0.466 µM in assay [2]; 0.345 µM in assay [3]; 0.376 µM in assay [4]; 0.689 µM in assay [5]; 0.383 µM in assay [6]. In addition, the GI50 in assay [7] was 1.08 µM; in assay [8] it was 0.309 µM; in assay [9] it was 0.569 µM; in assay [10], 0.283 µM. The TGI is over 33 µM in assay [1]; over 100 µM in assay [2]; over 33.4 µM in [3]; over 88.8 µM in assay [4]; over 100 µM in assay [5]; over 78.3 µM in assay [6]. Moreover, the TGI was over 100 µM in assay [7], 13.4 µM in assay [8], over 100 µM in [9] and over 100 µM in assay [10].

Consider `CC(C)[C@H]1CC[C@H]2[C@@H](CC[C@H]3[C@](C)(CN)CCC[C@]23C)C1`, for which the GI50 in assay [1] is 1.79 µM; in assay [2], 1.96 µM; in [3], 1.68 µM; in assay [4], 1.76 µM; in assay [5], 2.42 µM; in assay [6], 2.48 µM. The GI50 in assay [7] is 1.73 µM; in assay [8] it was 1.8 µM; in [9], 4.11 µM; in assay [10], 1.51 µM. Also, the TGI was 3.18 µM in [1]; 4.52 µM in [2]; 3.31 µM in assay [3]; 4.21 µM in assay [4]; 6.44 µM in assay [5]; 7.47 µM in assay [6]. The TGI is 3.44 µM in assay [7], 4.23 µM in assay [8], 17 µM in assay [9] and 2.85 µM in [10].

Take `Fc1ccc(-c2nn3c(-c4ccc(F)c(Cl)c4)nnc3s2)cc1`: the GI50 was over 50 µM in [1]; 34.8 µM in [2]; 27.7 µM in assay [3]; 28.6 µM in [4]; 29.1 µM in assay [5]; over 50 µM in assay [6]. The GI50 in assay [7] is over 50 µM; in assay [8] it was 27.4 µM; in assay [9], over 50 µM; in assay [10], 30.3 µM. Besides, the TGI in assay [1], in assay [2], in assay [3], in assay [4], in [5] and in assay [6] was over 50 µM throughout. The TGI in [7], in assay [8], in assay [9] and in assay [10] was over 50 µM throughout.

Regarding `CCC1C(=O)OCc2c1cc1n(c2=O)Cc2cc3ccccc3nc2-1` (stereo not given), the TGI was over 100 µM in assay [1]; over 90.2 µM in [2]; 64.4 µM in assay [3]; 11.7 µM in assay [4]; over 100 µM in [5]; over 100 µM in assay [6]. Moreover, the TGI is over 100 µM in assay [7], over 36.2 µM in assay [8], over 100 µM in assay [9] and over 48.6 µM in [10].

In the case of `CC(C)Nc1ccc(Nc2ccccc2)cc1`, the GI50 in assay [1] was 25.3 µM; in assay [2], 15.5 µM; in [3], 18.9 µM; in assay [4], 14.1 µM; in assay [5], 3.31 µM; in [6], 14.9 µM. Further, the GI50 in assay [7] is 24.6 µM; in assay [8], 17.7 µM; in assay [9], 12.8 µM; in assay [10] it was 11.1 µM. Moreover, the TGI in assay [1] is over 100 µM; in assay [2] it was 38.8 µM; in assay [3], over 100 µM; in [4] it was 64.9 µM; in assay [5], 15 µM; in assay [6], 43.2 µM. Further, the TGI came out at 57.1 µM in assay [7], 51.3 µM in assay [8], 44.7 µM in assay [9] and 31.9 µM in assay [10].

Turning to `CC(=O)Nc1ccc(/C=C/C(=O)c2ccccc2)cc1`, the GI50 was 15.5 µM in assay [1]; 13.8 µM in assay [2]; 17.6 µM in [3]; 5.3 µM in assay [4]; 13.1 µM in [5]; 16.7 µM in [6]. The GI50 in [7] was 18.3 µM; in assay [8] it was 24.8 µM; in assay [9] it was 16.6 µM; in assay [10], 3.5 µM. In addition, the TGI in assay [1] worked out at 29.7 µM; in assay [2] it was 42.3 µM; in assay [3], 41.6 µM; in [4], 21.2 µM; in assay [5], 29.6 µM; in assay [6] it was 36.9 µM. The TGI is 45.3 µM in assay [7], 81.2 µM in assay [8], 33.6 µM in assay [9] and 13.9 µM in [10].

As for `CCC[CH2][Sn]([CH2]CCC)([O]C(=O)c1cc(F)ccc1F)[O][Sn]([CH2]CCC)([CH2]CCC)[O]C(=O)c1cc(F)ccc1F`, the GI50 in assay [1] is 0.669 µM; in assay [2], 0.0222 µM; in assay [3], 1.03 µM; in assay [4], 0.54 µM; in [5], 0.251 µM; in assay [6] it was 0.125 µM. Further, the GI50 was 1.76 µM in [7], 0.139 µM in [8], 0.69 µM in [9] and 0.0822 µM in assay [10]. For the same compound, the TGI in assay [1] came to 1.92 µM; in [2] it was 0.207 µM; in [3], 2.48 µM; in assay [4] it was 1.78 µM; in [5], 0.738 µM; in assay [6], 0.339 µM. The TGI in [7] amounted to 3.16 µM; in [8], 2.6 µM; in [9], 2.11 µM; in assay [10], 0.776 µM.

`Cc1ccc2c(c1)c1nc3cc(C)c(C)cc3nc1n2CCN(C)C`: the GI50 in [1] was 1.79 µM; in [2], 3.34 µM; in assay [3] it was 2.69 µM; in assay [4] it was 1.07 µM; in assay [5], 0.821 µM; in assay [6], 1.73 µM. Also, the GI50 in assay [7] was 2.4 µM; in [8], 2.95 µM; in [9], 2.95 µM; in assay [10], 2.91 µM. Also, the TGI amounted to 3.98 µM in assay [1]; 17.7 µM in assay [2]; 9.25 µM in [3]; 3.48 µM in assay [4]; 5.92 µM in assay [5]; 3.76 µM in assay [6]. Also, the TGI in [7] stood at 7.65 µM; in assay [8] it was 9.65 µM; in assay [9], 11.4 µM; in [10], 9.7 µM.

The values are drawn from PubChem BioAssay (NCI).
